From PMC11599599, “Synthesis, characterization, molecular docking, pharmacokinetics, and molecular dynamics of new bis-thiazoles based on bis-thiosemicarbazone as anti-coxsackievirus” (Scientific Reports, 2024)

Columns and labels:
Format in all cases: cell-based
Cox B virus [1] = experiment: Mechanism of virus inhibition: viral adsorption; details: for Viral count (treated): Adsorption, control 1.6 × 10^7
Method: (§1) For a compound having an antiviral effect, this might be due to the effect on viral replication, the effect on viral adsorption, or the direct effect on the viral particle.
Viral adsorption[49] Vero cells were cultivated in a 6-well plate (10^5 cells/mL) for 1 day at 37 °C. The compound was applied at different concentrations in […] medium without supplements and coincubated with the cells for 2 h at 4 °C. The virus was coincubated with the pretreatment cells for one hour after the unadsorbed extract was eliminated by washing the cells three times in PBS. Next, 2 mL of DMEM supplemented with 2% agarose were added. The plates were left to solidify and incubated till the appearance of plaques.

Vero cells = experiment: Cytotoxicity assay on Vero cells (microscopic morphology); set-up: key to Cytotoxicity on Vero cells (cell sheet affected): -: Safe concentration; + 1, +2, + 3, +4: about 25, 50, 75, 100% of cell sheet was affected respectively; + 1, +2, + 3, +4: about 25, 50, 75, 100% of cell sheet was affected respectively; + 1, +2, + 3, +4: about 25, 50, 75, 100% of cell sheet was affected respectively; + 1, +2, + 3, +4: about 25, 50, 75, 100% of cell sheet was affected respectively; M: masked (color of compounds made cells unseen); details: for Cytotoxicity on Vero cells (cell sheet affected): 24 h, morphological changes
Method: (§2) Compounds: 10 mg were dissolved in 1 mL (10% DMSO and 90% deionized water), sterilized by 1% antibiotic–antimycotic mixture and stored in −20.
(§3) Cells: Vero cell line was used. The cells were propagated in DMEM medium (Lonza, USA) supplemented with 10% fetal bovine serum (Gibco, USA), 1% antibiotic–antimycotic mixture (Lonza, USA).
Cytotoxic effect of compounds was measured by inoculation different doses of compounds on tested cells then examining them microscopically after 24 h to determine any morphological changes that appeared on cells as a result of being subjected to the compounds[46]. Vero cells were seeded onto 96-well plates, which were then incubated for the whole night. After a 24-hour incubation period at 37 °C in a humidified incubator with 5% CO2, compounds were injected at concentrations of 10, 20, 30, 40, 50, 60, 70, 80, 90, and 100 µg /100 µl. Any morphological changes were monitored under a microscope.

Cox B virus [2] = experiment: Mechanism of virus inhibition: virucidal; details: for Viral count (treated): Virucidal, control 1.6 × 10^7
Method: For a compound having an antiviral effect, this might be due to the effect on viral replication, the effect on viral adsorption, or the direct effect on the viral particle. Virucidal[50] the assay was conducted in a 6-well plate with Vero cells that were cultured for two days at 37 °C (10^5 cells/mL). A volume of […] serum-free DMEM containing 1.5 × 10^2 PFU from Cox B was added to the concentration of the compound resulting in viral inhibition, after 1 h incubation, The mixture was diluted three times using serum-free media, which leaves almost no extract but still permits the existence of virus particles to develop on Vero cells. 100 mL of each dilution was then introduced to the Vero cell monolayer. The DMEM overlayer was added to the cell monolayer after a one-hour contact period. The plates were left to solidify then incubated till the appearance of plaques.

Cox B virus [3] = experiment: Plaque reduction assay against Cox B virus
Method: as §2, §3
Virus: Cox B virus was propagated and titrated to give final count of 0.9 × 10^5 viral particle/mL.
This test was done according to Tebas et al.[47], In a 12-well plate Vero cells (10^5 cells/mL) were cultivated for 1 day at 37 °C. The Cox B virus was mixed with the safe concentration of the compound and incubated for 1 h at 37 °C before being added to the cells. Following the removal of the growth media, the cells were injected with virus-extract combinations ([…]) and then rinsed with PBS (Phosphate Buffer Saline). Following a one-hour contact period for virus adsorption, the cell monolayer was supplemented with one milliliter of Dulbecco’s Modified Eagles Media (DMEM) containing 2% agarose. The plates were then allowed to solidify and incubated at 37 °C until the development of viral plaques. Formalin (10%) was added for 2 h then plates were stained with crystal violet. Control wells were included where untreated virus was incubated with Vero cells and finally plaques were counted and percentage reduction in plaques formation in comparison to control wells was recorded as following:
% inhibition = (viral count(untreated) - viral count(treated))/viral count(untreated)X100.

Cox B virus [4] = experiment: Mechanism of virus inhibition: viral replication; details: for Viral count (treated): Replication, control 1.6 × 10^7
Method: as §1
Viral replication[48] Assay was carried out in a 6-well plate where Vero cells were cultivated (10^5 cells/ml) for 1 day at 37 °C. The cells were directly inoculated with the virus. After an hour of incubation, unadsorbed viral particles were eliminated by repeatedly washing the cells with PBS.
The compound was applied at different concentrations, and after 1 h contact time, 2 mL of DMEM medium supplemented with 2% agarose were added to the cell monolayer. Plates were left to solidify then incubated till the appearance of plaques.

COc1ccc(OC)c(C=C2/C(=N/Nc3nc(C)c(/N=N/c4ccccc4)s3)c3ccccc3/C2=N\Nc2nc(C)c(/N=N/c3ccccc3)s2)c1 [7a, 2,2’-(((1E,3E)−2-(2,5-dimethoxybenzylidene)−1H-indene-1,3(2H)-diylidene)bis(hydrazin-1-yl-2-ylidene))bis(4-methyl-5-((E)-phenyldiazenyl)thiazole)]
Effect on viral adsorption (in words) (Cox B virus [1]): inhibiting both viral adsorption and replication | inhibition at 20 µg/mL (Cox B virus [1]): 42% | inhibition at 40 µg/mL (Cox B virus [1]): 57% | inhibition at 60 µg/mL (Cox B virus [1]): 85% | Viral count (treated) (Cox B virus [1]; 20 µg/ml): 0.92 × 10^7 | Viral count (treated) (Cox B virus [1]; 40 µg/ml): 0.68 × 10^7 | Viral count (treated) (Cox B virus [1]; 60 µg/ml): 0.24 × 10^7 | Cytotoxicity on Vero cells (cell sheet affected) (Vero cells; 10 µg/100µl): - | Cytotoxicity on Vero cells (cell sheet affected) (Vero cells; 20 µg/100µl): - | Cytotoxicity on Vero cells (cell sheet affected) (Vero cells; 30 µg/100µl): - | Cytotoxicity on Vero cells (cell sheet affected) (Vero cells; 40 µg/100µl): - | Cytotoxicity on Vero cells (cell sheet affected) (Vero cells; 50 µg/100µl): - | Cytotoxicity on Vero cells (cell sheet affected) (Vero cells; 70 µg/100µl): M | Cytotoxicity on Vero cells (cell sheet affected) (Vero cells; 80 µg/100µl): M | Cytotoxicity on Vero cells (cell sheet affected) (Vero cells; 90 µg/100µl): M | Cytotoxicity on Vero cells (cell sheet affected) (Vero cells; 100 µg/100µl): M | Safety effect on Vero cells (in words) (Vero cells; Table 1, 24 h): dense and coloured that made masking to the cell sheet | inhibition at 20 µg/mL (Cox B virus [2]): 0% | inhibition at 40 µg/mL (Cox B virus [2]): 12% | inhibition at 60 µg/mL (Cox B virus [2]): 37% | Viral count (treated) (Cox B virus [2]; 20 µg/ml): 1.6 × 10^7 | Viral count (treated) (Cox B virus [2]; 40 µg/ml): 1.4 × 10^7 | Viral count (treated) (Cox B virus [2]; 60 µg/ml): 1 × 10^7 | Viral count (treated) (Cox B virus [3]; 20 ug/mL): 0.54 × 10 ^7 | Viral count (treated) (Cox B virus [3]; 40 ug/mL): 0 × 10 ^7 | inhibition at 20 µg/mL (Cox B virus [3]; Vero): 66% | inhibition at 40 µg/mL (Cox B virus [3]; Vero): 100% | Antiviral activity against Cox B virus (in words) (Cox B virus [3]; at tested concentrations): high viral inhibition | Effect on viral replication (in words) (Cox B virus [4]): inhibiting both viral adsorption and replication | inhibition at 20 µg/mL (Cox B virus [4]): 37% | inhibition at 40 µg/mL (Cox B virus [4]): 48% | inhibition at 60 µg/mL (Cox B virus [4]): 56% | Viral count (treated) (Cox B virus [4]; 20 µg/ml): 1 × 10^7 | Viral count (treated) (Cox B virus [4]; 40 µg/ml): 0.8 × 10^7 | Viral count (treated) (Cox B virus [4]; 60 µg/ml): 0.7 × 10^7
